Results taken from US20230165970A1, “COMPOSITIONS AND METHODS FOR THE TREATMENT OF BACTERIAL INFECTIONS” (priority 2017, published 2023).
*1 amine or outer side, *2 acyl side, *3 side chain or, on linkers, in order; H or OH if unused. Where a SMILES comes first, the peptide text is derived from it. Bridges are numbered along the chain shown (N, C = ends). [ ]: non-standard residue; d: D form. The star is where a group is joined. X2 = O=C([C@@H](N[*:1])[C@H](O)CCC(F)(F)F)[*:2]; Propargyl(OCH2CH2)4CO = C#CCOCCOCCOCCOCCC(=O)*; Aoc(2) = CCCCCC[C@H](N)C(=O)O; Dab = NCC[C@H](N)C(=O)O

Test system: E. coli 25922
Conditions: (A) Bacteremia (E. coli); 5 mg/kg IV, single, +1 hr; survival after three days; N=3
Experimental: In vivo screening of selected compounds was accomplished in an E. coli bacteremia model (N=3). Efficacy was assessed in an animal model of infection using CD-1 mice by evaluating bacteremia in immune competent mice challenged with 2× the LD95 of E. coli 25922 (dosed qd, intraperitoneally (IP) at T+1 hour, survival endpoint).
Colistin (COL) and Int-17 were dosed at 0.3 mg/kg and Int-41 was dosed at 3.0 mg/kg. Percent survival was determined 72 hours after bacterial challenge. Compounds with MICs against E. coli 25922 of less than 4 μg/ml were evaluated in the bacteremia model.
Int-115 and Int-118 were evaluated for potency in a lethal model of bacteremia. […] Test articles were dissolved in 1× PBS and injected IV at a dose volume of 10 ml/kg one hour following bacterial challenge. Animals were monitored twice daily and mortality scored over three days.
CD-1 mice were used for bacteremia, C57BL/6J mice for endotoxemia. The endpoint was survival after three days for both models.

C#CCOCCOCCOCCOCCC(=O)N[C@@H](CCCCCC)C(=O)N[C@@H](CCN)C(=O)N[C@H](C(=O)N[C@@H](CCN)C(=O)N[C@H]1CCNC(=O)[C@H]([C@@H](C)O)NC(=O)[C@H](CCN)NC(=O)[C@H](CCN)NC(=O)[C@H](CC(C)C)NC(=O)[C@@H](Cc2ccccc2)NC(=O)[C@H](CCN)NC1=O)[C@H](O)CCC(F)(F)F [Int-118] ({Propargyl(OCH2CH2)4CO}-[Aoc(2)][Dab][X2][Dab][Dab][Dab][dF]L[Dab][Dab]T; lactam 5-C)
% survival: 66%
